How the values were obtained:
WT myotubes = test: 3H-2-deoxyglucose uptake in myotubes; assay type: cell-based, mouse
Method: (§1) The main nutrient used by muscle to generate energy at the onset of exercise is glucose and osteocalcin increased the uptake of ^3H-2-deoxyglucose (^3H-2DG) in WT but not in Gprc6a−/− myotubes (FIG. 26D-E). To exclude the involvement of other secreted molecules, this experiment was performed in serum-free conditions. […] This decrease in glucose uptake in muscles of Gprc6aMck−/− mice provides an explanation for why blood glucose levels were two-fold higher in Gprc6aMck−/− and Gprc6aHsa−/− than in control mice after exercise (FIG. 26G-H).
(§2) Glucose and insulin tolerance tests were performed as previously described (Lee et al., 2007, Cell 130:456-469). For in vivo glucose uptake, a bolus of 2-deoxy-d-[^3H]glucose (^3H-2-DG, Perkin Elmer) (10 μCi) was administered before an endurance run. ^3H-2-DG and ^3H-2-DG-6-P content in muscle was determined by liquid scintillation counter and normalized to muscle weight. Glucose uptake and fatty acid oxidation assays in myotubes were performed as previously described (Sebastian et al., 2007, Am. J. Physiol. Endocrinol. Metab. 292:E667-686). GLUT4 translocation was determined by flow cytometry using an antibody against the extracellular domain of the GLUT4 protein (Santa Cruz, Sc-1606). Measurements of oxygen consumption rates (OCR) in isolated myofibers were performed using a XF24 Seahorse Analyzer® (Seahorse Biosciences). To analyze mitochondrial function, myofibers were treated with three compounds in succession (oligomycin 10 μg/ml, FCCP 200 μM, rotenone 0.2 μM) and OCR was recorded following administration of each of them.
(§3) Culture of skeletal muscle myoblasts from 7 day-old mice was performed as described (Gharaibeh et al., 2008, Nature Protocols 3:1501-1509). Myoblasts were differentiated into myotubes for 3-4 days in a medium containing 5% horse serum. Muscle fibers were isolated from flexor digitorum brevis muscle. Muscles were dissected with DMEM 2% collagenase for 2 hours at 37° C., in a 5% CO2 incubator. […]

Gprc6a−/− myotubes = test: 3H-2-deoxyglucose uptake in myotubes; assay type: cell-based, mouse; settings: serum-free conditions
Method: as §1, §2, §3

[1] = system: wild type mice injected with gold thioglucose (GTG); test: GTG-induced obesity; assay type: in vivo, mouse
Method: FIG. 5. Osteocalcin subcutaneous infusion alleviates GTG-induced obesity in wild-type mice. Wild-type mice were injected with gold thioglucose (GTG) or vehicle to induce hyperphagia and obesity. Two weeks later they were implanted with subcutaneous osmotic pumps infusing […] of recombinant osteocalcin or PBS for 28 days before. Body weight gain was recorded thereafter at indicated days.
For GTG-induced obesity, male and female 4 week-old wild-type (WT) and Osteocalcin^−/− mice (n=10 per group) were injected with […] of GTG
The effect of uncarboxylated osteocalcin on GTG-induced obesity was investigated (FIG. 5). Wild type mice were injected with gold thioglucose (GTG) to induce hyperphagia and obesity or vehicle. Two weeks later they were implanted with subcutaneous osmotic pumps infusing 1 ng/hr of recombinant uncarboxylated osteocalcin or PBS for 28 days. […] At 28 days, body weight was reduced by about 15% with uncarboxylated osteocalcin treatment.

[2] = Crossing of the blood-brain barrier; settings: stated without test description
wild type mice [3] = test: Glycemia during subcutaneous infusion; assay type: in vivo, mouse; settings: 0.3, 1 and 3 ng/hour subcutaneously for 28 days, versus PBS
Method: FIG. 1. Osteocalcin subcutaneous infusion decreases glycemia in wild-type mice. Indicated doses of recombinant osteocalcin or PBS were infused subcutaneously for 28 days in wild-type mice. Blood glucose was measured at indicated days.
An in vivo experiment was conducted in which the effect of undercarboxylated osteocalcin on glycemia was monitored. Wild type mice were infused with 3 different amounts of mouse recombinant undercarboxylated osteocalcin or placebo (PBS) subcutaneously for 28 days (0.3, 1 and 3 ng/hour). Compared to the control animal infused with placebo, all three doses of undercarboxylated osteocalcin decreased glycemia in vivo over the 28 day period (FIG. 1).

wild type mice [4] = test: Glucose tolerance test after subcutaneous infusion; assay type: in vivo, mouse; settings: 0.3 or 3 ng/hour subcutaneously for 14 days, 120 minutes following glucose injection
Method: FIG. 2. Osteocalcin subcutaneous infusion increases glucose tolerance in wild-type mice. Wild-type mice were infused subcutaneously with indicated doses of recombinant osteocalcin or PBS for 14 days before receiving a single injection of glucose. Blood glucose was measured thereafter at indicated times.
For glucose tolerance test (GTT), glucose (2 g/kg body weight (BW)) was injected intraperitoneally (IP) after an overnight fast and blood glucose was monitored using blood glucose strips and the Accu-Check glucometer (Roche) at indicated times.
In another in vivo experiment, the effect of uncarboxylated osteocalcin on glucose tolerance was investigated. Wild type mice were infused subcutaneously with either 0.3 or 3 ng/hour doses of recombinant uncarboxylated osteocalcin or PBS for 14 days before receiving a single injection of glucose. Blood glucose was measured thereafter at the indicated times.

Osteocalcin−/− mice = test: Bronchoconstriction of Osteocalcin−/− mice, intracerebroventricular infusion; assay type: in vivo, mouse; settings: intracerebroventricular infusions in Osteocalcin−/− mice

uncarboxylated osteocalcin: Recombinant uncarboxylated mouse osteocalcin, bacterially produced, purified on glutathione beads and cleaved from the GST subunit by thrombin (YLGASVPSPDPLEPTREQCELNPACDELSDQYGLKTAYKRIYGITI)
uptake of 3H-2-deoxyglucose (3H-2DG) (WT myotubes; WT myotubes, serum-free conditions): increased | glucose uptake (WT myotubes; as worded in FIG. 19 (wild-type) and summary (in muscle)): favors | uptake of 3H-2-deoxyglucose (3H-2DG) (Gprc6a−/− myotubes): not | body weight gain ([1]; 1 ng/hr subcutaneous osmotic pumps for 28 days, from 7 days on): significantly reduced | reduction of body weight ([1]; 1 ng/hr, at 28 days): about 15% | GTG-induced obesity ([1]; subcutaneous infusion 28 days (FIG. 5 title)): alleviates | crossing of the blood-brain barrier [2]: crosses | crossing of the blood-brain barrier ([2]; listed as undercarboxylated/uncarboxylated osteocalcin): can cross | glycemia (wild type mice [3]): decreases | glycemia (wild type mice [3]; listed as undercarboxylated osteocalcin): decreased | glucose tolerance (wild type mice [4]): increased | glucose tolerance (wild type mice [4]; listed as Osteocalcin): increases | bronchoconstriction (Osteocalcin−/− mice): do not correct
